The results in this text go back to US5482967A, “Condensed heterocyclic compounds, their production and use” (Takeda Chemical Industries, Ltd., priority 1992, dated 1996).

The target in assay [1] is T1, acyl-CoA:cholesterol acyl transferase (ACAT) (Rattus norvegicus, UniProt Q7TQM4).
T1 construct: small intestine mucosal microsome fraction of a 6-week-old male Sprague-Dawley rat; from tissue; host or cells: rat small intestine mucosa, microsome fraction
T1 sequence (Q7TQM4 1-524): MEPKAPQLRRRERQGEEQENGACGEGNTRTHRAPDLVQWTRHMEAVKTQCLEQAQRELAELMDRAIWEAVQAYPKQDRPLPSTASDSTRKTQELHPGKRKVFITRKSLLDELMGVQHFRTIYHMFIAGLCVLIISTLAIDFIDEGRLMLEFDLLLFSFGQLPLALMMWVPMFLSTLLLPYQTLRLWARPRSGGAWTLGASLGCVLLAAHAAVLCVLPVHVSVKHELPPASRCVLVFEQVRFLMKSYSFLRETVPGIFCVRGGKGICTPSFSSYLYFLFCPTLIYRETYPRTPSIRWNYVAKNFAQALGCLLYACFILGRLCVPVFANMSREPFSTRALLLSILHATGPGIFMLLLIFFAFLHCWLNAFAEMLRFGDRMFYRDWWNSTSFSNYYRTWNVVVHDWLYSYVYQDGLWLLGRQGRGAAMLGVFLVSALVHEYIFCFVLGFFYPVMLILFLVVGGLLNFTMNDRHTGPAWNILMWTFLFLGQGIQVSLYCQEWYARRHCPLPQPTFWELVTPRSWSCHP
The assay is described as follows: Inhibitory action against acyl-CoA:cholesterol acyl transferase (ACAT), formation of labeled cholesterol ester, small intestine mucosal microsome fraction. To be noted: 10^-6 M; read-out: ACAT Inhibitory Rate (%). The format is biochemical, male Sprague-Dawley rat. Here is the method: An ACAT enzyme preparation was prepared from a small intestine mucosal microsome fraction of a 6-week-old male Sprague-Dawley rat, previously fasted for 20 hours, in accordance with the method described by Heider et al. in the Journal of Lipid Research, Vol. 24, page 1127 (1982).
ACAT activity was determined by measuring the amount of labeled cholesterol ester produced from [1-^14 C]-oleoyl-CoA and endogenous cholesterol, in accordance with the method of Helgerud et al. [Journal of Lipid Research, Vol. 22, page 271 (1981)].

A short description of assay [2]: Hypocholesterolemic activity (cholesterol-lowering activity) in hypercholesterolemic mice on high cholesterol-cholic acid diet. To be noted: vs control groups; for Reduction % HPL: heparin precipitating lipoproteins; for Reduction % cholesterol: serum. The format is in vivo, ICR mice. As to the method:
Groups of 6 ICR mice (2 subgroups of 3 mice) were made hypercholesterolemic by being fed a high cholesterol-cholic acid diet for 7 days and administered with test compounds orally on the last two days. One-half of the total does was given on day 6 followed by the other half on day 7. After fasting overnight (16 hours after the last dose), the animals were sacrificed and sera were collected together for the each subgroup for measuring the levels of cholesterol and heparin precipitating lipoproteins (HPL). Both cholesterol and HPL levels were measured with autonalyzer by the enzymatic CHOD-PAP method for the former and by the turbidimetric method of Shurr et. al. [in C. E. Dau ed. Atherosclerosis Drug Discovery, Plenum Publishing, New York, pp. 215-229 & 231-249, 1976.] for the latter.

Molecules are shown by their SMILES.

Regarding `CC(C)c1cccc(C(C)C)c1NC(=O)Cc1oc(=O)c2ccc(Cl)cc2c1-c1ccccc1` [Example 48, N-[2,6-Bis(1-methylethyl)phenyl]-6-chloro-1-oxo-4-phenyl-1H-2-benzopyran-3-acetamide], the inhibition at 1 µM in assay [1] came out at 99.2%. In addition, in assay [2] (3 mg/kg po), the “Reduction % HPL” value was determined as 26% and the Reduction % cholesterol was 27%. Besides, in assay [2] (10 mg/kg po), the “Reduction % HPL” value came out at 39% and the Reduction % cholesterol was 32%.

On to `Cc1ccccc1-c1c(CC(=O)Nc2c(C(C)C)cccc2C(C)C)c(=O)oc2ccc(Cl)cc12` [Example 82, N-[2,6-Bis(1-methylethyl)phenyl]-6-chloro-4-(2-methylphenyl)-2-oxo-2H-1-benzopyran-3-acetamide], for which, in assay [1], the inhibition at 1 µM was 99.3%. For the same compound, in assay [2] (3 mg/kg po), the “Reduction % HPL” value was 37% and the Reduction % cholesterol is 31%. Further, in assay [2] (10 mg/kg po), the “Reduction % HPL” value came to 50% and the Reduction % cholesterol came out at 40%.

On to `COc1ccccc1-c1c(CC(=O)Nc2c(OC)cccc2OC)oc(=O)c2ccccc12` [Example 74, N-(2,6-Dimethoxyphenyl)-4-(2-methoxyphenyl)-1-oxo-1H-2-benzopyran-3-acetamide], for which the inhibition at 1 µM in assay [1] is 99.5%. In addition, in assay [2] (3 mg/kg po), the “Reduction % HPL” value is 32% and the Reduction % cholesterol is on record as 29%. In addition, in assay [2] (10 mg/kg po), the “Reduction % HPL” value is listed as 37% and the Reduction % cholesterol was determined as 33%.

Regarding `CC(C)c1cccc(C(C)C)c1NC(=O)CC1C(=O)N(C)c2ccc(Cl)cc2N1c1ccccc1` (stereo not shown) [Example 42, N-[2,6-Bis(1-methylethyl)phenyl]-6-chloro-1,2,3,4-tetrahydro-1-methyl-2-oxo-4-phenyl-3-quinoxalineacetamide], in assay [1], the inhibition at 1 µM is 96.6%.

`Cc1cccc(C)c1NC(=O)C[C@@H]1C(=O)N(C)c2ccc(Cl)cc2[C@H]1c1ccccc1` (relative stereo) [Example 29, 3,4-trans-6-Chloro-N-(2,6-dimethylphenyl)-1,2,3,4-tetrahydro-1-methyl-2-oxo-4-phenyl-3-quinolineacetamide]: the inhibition at 1 µM in assay [1] was found to be 98.4%.

Regarding `COc1cccc(OC)c1NC(=O)Cc1c(-c2ccccc2C)c2cc(Cl)ccc2oc1=O` [Example 84, 6-Chloro-N-(2,6-dimethoxyphenyl)-4-(2-methylphenyl)-2-oxo-2H-1-benzopyran-3-acetamide], the inhibition at 1 µM in assay [1] was 99.5%. In addition, in assay [2] (3 mg/kg po), the “Reduction % HPL” value is listed as 28% and the Reduction % cholesterol worked out at 15%. Further, in assay [2] (10 mg/kg po), the “Reduction % HPL” value was found to be 47% and the Reduction % cholesterol is given as 33%.

In the case of `CC(C)c1cccc(C(C)C)c1NC(=O)CC1=C(c2ccccc2)c2cc(Cl)ccc2N(C)C1` [Example 99, N-[2,6-Bis(1-methylethyl)phenyl]-6-chloro-1,2-dihydro-1-methyl-4-phenyl-3-quinolineacetamide], the inhibition at 1 µM in assay [1] turned out to be 97%.

In the case of `COc1cc(OC)c(NC(=O)Cc2c(-c3ccccc3C)c3cc(Cl)ccc3oc2=O)c(OC)c1` [Example 85, 6-Chloro-4-(2-methylphenyl)-2-oxo-N-(2,4,6-trimethoxyphenyl)-2H-1-benzopyran-3-acetamide], the inhibition at 1 µM in assay [1] worked out at 99.5%.

Take `COc1cc2c(cc1OC)N(C)C(=O)C(CC(=O)Nc1c(C(C)C)cccc1C(C)C)C2c1ccccc1` (stereo not shown) [Example 18, N-[2,6-Bis(1-methylethyl)phenyl]-1,2,3,4-tetrahydro-6,7-dimethoxy-1-methyl-2-oxo-4-phenyl-3-quinolineacetamide]: the inhibition at 1 µM in assay [1] was determined as 97.3%.

As for `CC(C)c1cccc(C(C)C)c1NC(=O)Cc1c(-c2ccccc2C(F)(F)F)c2cc(Cl)ccc2oc1=O` [Example 94, N-[2,6-Bis(1-methylethyl)phenyl]-6-chloro-2-oxo-4-(2-trifluoromethylphenyl)-2H-1-benzopyran-3-acetamide], the inhibition at 1 µM in assay [1] was 98.6%.

With `CCOc1cc(F)cc(OCC)c1NC(=O)Cc1c(-c2ccccc2C(F)(F)F)c2cc(Cl)ccc2oc1=O` [Example 96, 6-Chloro-N-(2,6-diethoxy-4-fluorophenyl)-2-oxo-4-(2-trifluoromethylphenyl)-2H-1-benzopyran-3-acetamide], the inhibition at 1 µM in assay [1] came to 99.3%.

On to `CCOc1cc(F)cc(OCC)c1NC(=O)Cc1c(-c2ccccc2C)c2cc(Cl)ccc2oc1=O` [Example 89, 6-Chloro-N-(2,6-diethoxy-4-fluorophenyl)-4-(2-methylphenyl)-2-oxo-2H-1-benzopyran-3-acetamide], for which, in assay [1], the inhibition at 1 µM came out at 98.2%.
